In US20050245399A1, “Pyrazole derivatives as herbicidal compositions containing them” (ISHIHARA SANGYO KAISHA, LTD., priority 2004, published 2005):

Experiments:
Type in all cases: in vivo
[1] = tested on: crabgrass (Digitaria sanguinalis L.), DIGSA; assay: Test Example 2 post-emergence (foliage treatment) herbicidal activity, DIGSA; details: 63 g a.i./ha
In short: (§1)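 A small sprayer delivered the diluted WP or EC formulation (500 L/ha water, 0.1% v/v spreader) over emerged seedlings in upland soil pots. Damage relative to untreated plants was graded visually from 0 to 100% three weeks or so later (days 20-23).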

[2] = tested on: wheat (Triticum aestivum L.), TRZAX; assay: Test Example 2 post-emergence (foliage treatment) herbicidal activity, TRZAX; details: 63 g a.i./ha
In short: (§2)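 Foliar spray of formulated compound (500 L/ha dilution water, 0.1% v/v spreader) onto young potted plants at defined leaf stages. Scored 0-100% by visual inspection 20-23 d post-spray.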

[3] = tested on: japanese ribbon wapato (Sagittaria pygmaea: SA GPY); assay: Test Example 3 water application herbicidal activity (paddy), SAGPY; details: 63 g a.i./ha, water application under submerged condition, tubers planted, visually observed 14th day after application; 0 = untreated control, 100 = complete kill
In short: (§3)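 Flooded paddy-soil pots in greenhouse; ECHOR and SCPJO sown, SAGPY tubers planted a day later, compound applied into 3–4 cm water at weeds' 0.5-leaf stage. Rice transplanted at 2-leaf stage, treated day 4 after transplanting. Visual growth control 0–100% at 14 days (weeds) and 21 days (rice) after application.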

[4] = tested on: prickly sida (Sida spinosa L.), SIDSP; assay: Test Example 2 post-emergence (foliage treatment) herbicidal activity, SIDSP; details: 63 g a.i./ha
In short: as §2

[5] = tested on: crabgrass (Digitaria sanguinalis L.): DIGSA; assay: Test Example 1 pre-emergence herbicidal activity, DIGSA; details: Rate 63 g a.i./ha, visually observed 20th to 23rd day after application
In short: (§4)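 Herbicidal effect in pre-emergence treatment: formulated compound sprayed at 500 L/ha water one day after sowing in upland field soil pots, with visual 0–100% growth-control scores recorded 20–23 days after application.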

[6] = tested on: barnyardgrass (Echinochloa crus-galli L.), ECHCG; assay: Test Example 2 post-emergence (foliage treatment) herbicidal activity, ECHCG; details: 63 g a.i./ha
In short: as §1

[7] = tested on: soybean (Glycine max Merr.), GLXMA; assay: Test Example 2 post-emergence (foliage treatment) herbicidal activity, GLXMA; details: 63 g a.i./ha
In short: as §2

[8] = tested on: velvetleaf (Abutilon theophrasti): ABUTH; assay: Test Example 1 pre-emergence herbicidal activity, ABUTH; details: Rate 63 g a.i./ha, visually observed 20th to 23rd day after application
In short: as §4

[9] = tested on: green foxtail (Setaria viridis L.): SETVI; assay: Test Example 1 pre-emergence herbicidal activity, SETVI; details: Rate 63 g a.i./ha, visually observed 20th to 23rd day after application
In short: as §4

[10] = tested on: rice (Oryza sativa L.), ORYSA; assay: Test Example 2 post-emergence (foliage treatment) herbicidal activity, ORYSA; details: 63 g a.i./ha
In short: as §1

[11] = tested on: redroot pigweed (Amaranthus retroflexus L.): AMARE; assay: Test Example 1 pre-emergence herbicidal activity, AMARE; details: Rate 63 g a.i./ha, visually observed 20th to 23rd day after application
In short: as §4

[12] = tested on: green foxtail (Setaria viridis L.), SETVI; assay: Test Example 2 post-emergence (foliage treatment) herbicidal activity, SETVI; details: 63 g a.i./ha
In short: as §2

[13] = tested on: prickly sida (Sida spinosa L.): SEDSP; assay: Test Example 1 pre-emergence herbicidal activity, SIDSP; details: Rate 63 g a.i./ha, visually observed 20th to 23rd day after application
In short: as §4

[14] = tested on: wheat (Triticum aestivum L.): TRZAX; assay: Test Example 1 pre-emergence herbicidal activity, TRZAX; details: Rate 63 g a.i./ha, visually observed 20th to 23rd day after application
In short: as §4

[15] = tested on: soybean (Glycine max Merr.): GLXMA; assay: Test Example 1 pre-emergence herbicidal activity, GLXMA; details: Rate 63 g a.i./ha, visually observed 20th to 23rd day after application
In short: as §4

[16] = tested on: rice (Oryza sativa L.): ORYSA; assay: Test Example 1 pre-emergence herbicidal activity, ORYSA; details: Rate 63 g a.i./ha, visually observed 20th to 23rd day after application
In short: as §4

[17] = tested on: barnyardgrass (Echinochloa crus-galli L.): ECHCG; assay: Test Example 1 pre-emergence herbicidal activity, ECHCG; details: Rate 63 g a.i./ha, visually observed 20th to 23rd day after application
In short: as §4

[18] = tested on: corn (Zea mays L.): ZEAMX; assay: Test Example 1 pre-emergence herbicidal activity, ZEAMX; details: Rate 63 g a.i./ha, visually observed 20th to 23rd day after application
In short: as §4

[19] = tested on: corn (Zea mays L.), ZEAMX; assay: Test Example 2 post-emergence (foliage treatment) herbicidal activity, ZEAMX; details: 63 g a.i./ha
In short: as §2

[20] = tested on: japanese bulrush (Scirpus juncoides: SCPJO); assay: Test Example 3 water application herbicidal activity (paddy), SCPJO; details: 63 g a.i./ha, water application under submerged condition at 0.5 leaf stage, visually observed 14th day after application; 0 = untreated control, 100 = complete kill
In short: as §3

[21] = tested on: rice (Oryza sativa L.: ORYSA); assay: Test Example 3 water application herbicidal activity (paddy), transplanted rice ORYSA; details: 63 g a.i./ha, water application 4th day after transplantation of 2 leaf stage rice, visually observed 21st day after application; 0 = untreated control, 100 = complete kill
In short: as §3

[22] = tested on: barnyardgrass (Echinochiloa oryzicola: ECHOR); assay: Test Example 3 water application herbicidal activity (paddy), ECHOR; details: 63 g a.i./ha, water application under submerged condition at 0.5 leaf stage, visually observed 14th day after application; 0 = untreated control, 100 = complete kill
In short: as §3

[23] = tested on: velvetleaf (Abutilon theophrasti), ABUTH; assay: Test Example 2 post-emergence (foliage treatment) herbicidal activity, ABUTH; details: 63 g a.i./ha
In short: as §2

[24] = tested on: redroot pigweed (Amaranthus retroflexus L.), AMARE; assay: Test Example 2 post-emergence (foliage treatment) herbicidal activity, AMARE; details: 63 g a.i./ha
In short: as §1

SMILES | growth controlling degree, DIGSP [1] [%] | growth controlling degree, TRZAX [2] [%] | growth controlling degrees (%) SAGPY [3] [%] | growth controlling degree, SIDSP [4] [%] | Pre-emergence Herbicidal Activity DIGSP (growth controlling degree) [5] [%] | growth controlling degree, ECHCO [6] [%] | growth controlling degree, GLXMA [7] [%] | Pre-emergence Herbicidal Activity ABUTH (growth controlling degree) [8] [%] | Pre-emergence Herbicidal Activity SETVI (growth controlling degree) [9] [%] | growth controlling degree, ORYSA [10] [%] | Pre-emergence Herbicidal Activity AMARE (growth controlling degree) [11] [%] | growth controlling degree, SETVI [12] [%] | Pre-emergence Herbicidal Activity SIDSP (growth controlling degree) [13] [%] | Pre-emergence Herbicidal Activity TRZAX (growth controlling degree) [14] [%] | Pre-emergence Herbicidal Activity GLXMA (growth controlling degree) [15] [%] | Pre-emergence Herbicidal Activity ORYSA (growth controlling degree) [16] [%] | Pre-emergence Herbicidal Activity ECHCG (growth controlling degree) [17] [%] | Pre-emergence Herbicidal Activity ZEAMX (growth controlling degree) [18] [%] | growth controlling degree, ZEAMX [19] [%] | growth controlling degrees (%) SCPJO [20] [%] | other results
COc1c(Cl)cc(F)c(-c2nn(C)c(OC(F)F)c2Cl)c1NC(=O)c1ccc(F)cc1F [Compound 1-30] | 100 | 50 | 100 | 100 | 100 | 100 | 95 | 100 | 100 | 90 | 100 | 100 | 100 | 0 | 10 | 10 | 60 | 10 | 60 | 98 | growth controlling degrees (%) ORYSA [21]: 60%; growth controlling degrees (%) ECHOR [22]: 100%; growth controlling degree, ABUTH [23]: 100%; growth controlling degree, AMARE [24]: 100%
COc1c(Cl)cc(F)c(-c2nn(C)c(OC(F)F)c2Cl)c1NC(=O)/C=C/c1ccccc1 [Compound 1-31] | 80 | 20 | 95 | 100 | 100 | 80 | 60 | 100 | 100 | 60 | 100 | 95 | 100 | 10 | 10 | 50 | 80 | 10 | 40 | 60 | growth controlling degrees (%) ORYSA [21]: 40%; growth controlling degrees (%) ECHOR [22]: 100%; growth controlling degree, ABUTH [23]: 100%; growth controlling degree, AMARE [24]: 100%
COc1c(Cl)cc(F)c(-c2nn(C)c(OC(F)F)c2Cl)c1NC(=O)C(C)Oc1ccccc1 (stereo not drawn) [Compound 1-33] | 70 | 30 | 98 | 100 | 40 | 80 | 60 | 40 | 50 | 50 | 95 | 98 | 50 | 10 | 0 | 10 | 30 | 0 | 60 | 40 | growth controlling degrees (%) ORYSA [21]: 35%; growth controlling degrees (%) ECHOR [22]: 100%; growth controlling degree, ABUTH [23]: 100%; growth controlling degree, AMARE [24]: 100%
